Assay: xn = mol fraction of the nth substance listed
Conditions: 101.33 kPa, Liquid

Cc1cccnc1 [3-methylpyridine] + O
Conditions	mass density [kg/m3]	viscosity [mPa·s]
293.15 K, x1 = 0.0101	998	1.149
293.15 K, x1 = 0.0211	997.8	1.301
293.15 K, x1 = 0.033	997.5	1.467
293.15 K, x1 = 0.0462	997.2	1.626
293.15 K, x1 = 0.114	995.4	2.301
293.15 K, x1 = 0.225	992.1	2.914
293.15 K, x1 = 0.36	986.9	3.04
293.15 K, x1 = 0.436	983.1	2.9
293.15 K, x1 = 0.5	979.7	2.733
293.15 K, x1 = 0.6	974.3	2.386
293.15 K, x1 = 0.7	969	2.021
293.15 K, x1 = 0.8	964.1	1.655
293.15 K, x1 = 0.9	959.8	1.31
293.15 K, x1 = 1	956	0.9459
303.15 K, x1 = 0.0101	995.1	0.913
303.15 K, x1 = 0.0211	994.4	1.021
303.15 K, x1 = 0.033	993.7	1.133
303.15 K, x1 = 0.0462	992.9	1.255
303.15 K, x1 = 0.114	989.3	1.705
303.15 K, x1 = 0.225	984	2.022
303.15 K, x1 = 0.36	977.8	2.034
303.15 K, x1 = 0.436	973.6	1.938
303.15 K, x1 = 0.5	970.2	1.83
303.15 K, x1 = 0.6	964.5	1.638
303.15 K, x1 = 0.7	959.4	1.449
303.15 K, x1 = 0.8	954.6	1.255
303.15 K, x1 = 0.9	950.3	1.049
303.15 K, x1 = 1	946.6	0.8318
313.15 K, x1 = 0.0101	991.2	0.731
313.15 K, x1 = 0.0211	990.2	0.8139
313.15 K, x1 = 0.033	989.2	0.8959
313.15 K, x1 = 0.0462	988	0.98
313.15 K, x1 = 0.114	982.9	1.307
313.15 K, x1 = 0.225	976.4	1.572
313.15 K, x1 = 0.36	968.9	1.588
313.15 K, x1 = 0.436	964.7	1.511
313.15 K, x1 = 0.5	961	1.43
313.15 K, x1 = 0.6	955.3	1.286
313.15 K, x1 = 0.7	950.2	1.149
313.15 K, x1 = 0.8	945.5	1.018
313.15 K, x1 = 0.9	941.3	0.884
313.15 K, x1 = 1	937.7	0.7352
323.15 K, x1 = 0.0101	986.6	0.6101
323.15 K, x1 = 0.0211	985.2	0.6693
323.15 K, x1 = 0.033	983.7	0.7356
323.15 K, x1 = 0.0462	982.3	0.7921
323.15 K, x1 = 0.114	975.6	1.048
323.15 K, x1 = 0.225	967.7	1.23
323.15 K, x1 = 0.36	959.4	1.255
323.15 K, x1 = 0.436	954.9	1.207
323.15 K, x1 = 0.5	951.2	1.162
323.15 K, x1 = 0.6	945.5	1.071
323.15 K, x1 = 0.7	940.5	0.9777
323.15 K, x1 = 0.8	935.9	0.8686
323.15 K, x1 = 0.9	931.8	0.7536
323.15 K, x1 = 1	928.3	0.6565
333.15 K, x1 = 0.0101	981.4	0.5203
333.15 K, x1 = 0.0211	979.6	0.5735
333.15 K, x1 = 0.033	977.7	0.6346
333.15 K, x1 = 0.0462	975.8	0.6624
333.15 K, x1 = 0.114	967.9	0.866
333.15 K, x1 = 0.225	958.7	1.015
333.15 K, x1 = 0.36	950	1.042
333.15 K, x1 = 0.436	945.4	1.004
333.15 K, x1 = 0.5	941.8	0.9701
333.15 K, x1 = 0.6	936.1	0.8988
333.15 K, x1 = 0.7	931.1	0.8305
333.15 K, x1 = 0.8	926.7	0.7562
333.15 K, x1 = 0.9	922.7	0.6699
333.15 K, x1 = 1	919.3	0.5936
343.15 K, x1 = 0.0101	975.8	0.4504
343.15 K, x1 = 0.0211	973.7	0.4888
343.15 K, x1 = 0.033	971.7	0.5355
343.15 K, x1 = 0.0462	969.4	0.5782
343.15 K, x1 = 0.114	960.5	0.7454
343.15 K, x1 = 0.225	950.2	0.8494
343.15 K, x1 = 0.36	940.4	0.8766
343.15 K, x1 = 0.436	936	0.8557
343.15 K, x1 = 0.5	932.3	0.8315
343.15 K, x1 = 0.6	926.8	0.786
343.15 K, x1 = 0.7	921.8	0.7335
343.15 K, x1 = 0.8	917.4	0.673
343.15 K, x1 = 0.9	913.6	0.6135
343.15 K, x1 = 1	910.3	0.539

Source: the NIST ThermoML archive (doi:10.1016/j.jct.2004.11.009)
